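Where inhibition never reached the appropriate level, the endpoint shown equals the highest concentration tested. Otherwise, values were interpolated linearly from a five-concentration, 48-hour dose response in 96-well plates. Abbreviation: GI50, concentration required for 50% inhibition of growth.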 The source made the active and inactive calls. Rule as the data show it: active = GI50 up to about 1.1 µM and inactive = higher.
Columns and labels:
Assay in all cases: NCI-60 cell line screen, 48 h
ACHN = tested on: ACHN
HL-60 = tested on: HL-60
HT-29 = tested on: HT-29
NCI-H226 = tested on: NCI-H226
OVCAR-3 = tested on: OVCAR-3
RXF 393 = tested on: RXF 393
SK-MEL-5 = tested on: SK-MEL-5
SNB-75 = tested on: SNB-75
SR = tested on: SR
SW-620 = tested on: SW-620
TK-10 = tested on: TK-10
UO-31 = tested on: UO-31
A498 = tested on: A498
HOP-62 = tested on: HOP-62
NCI-H460 = tested on: NCI-H460
OVCAR-4 = tested on: OVCAR-4
Hs-578T = tested on: Hs-578T
PC-3 = tested on: PC-3

Compound | GI50 (ACHN) | GI50 (HL-60) | GI50 (HT-29) | GI50 (NCI-H226) | GI50 (OVCAR-3) | GI50 (RXF 393) | GI50 (SK-MEL-5) | GI50 (SNB-75) | GI50 (SR) | GI50 (SW-620) | GI50 (TK-10) | GI50 (UO-31) | GI50 (A498) | GI50 (HOP-62) | GI50 (NCI-H460) | GI50 (OVCAR-4) | GI50 (Hs-578T) | GI50 (PC-3)
FC(F)(F)c1cccc(C2SCc3nc4ccccc4n32)c1 (stereo not given) | 64 µM (inactive) | 5.75 µM (inactive) | > 100 µM (inactive) | > 100 µM (inactive) | 56 µM (inactive) | 33.1 µM (inactive) | 11 µM (inactive) | 29.8 µM (inactive) | 44 µM (inactive) | > 100 µM (inactive) | 72.3 µM (inactive) | > 100 µM (inactive) | – | – | – | – | – | –
O=c1oc2c(O)c(O)cc3c(=O)oc4c(O)c(O)cc1c4c23 [ELLAGIC ACID] | 45.8 µM (inactive) | > 10 µM (inactive) | > 10 µM (inactive) | 23.6 µM (inactive) | 29.9 µM (inactive) | > 10 µM (inactive) | > 10 µM (inactive) | 32.4 µM (inactive) | 71.1 µM (inactive) | > 10 µM (inactive) | 75.2 µM (inactive) | 39.7 µM (inactive) | 21.4 µM (inactive) | > 10 µM (inactive) | 53.5 µM (inactive) | 31.6 µM (inactive) | – | –
NNC(=O)C(=O)N/N=C1\CCC(=O)CC1C(=O)CCC(=O)Nc1ccc(Cl)cc1 (stereo not given) | > 100 µM (inactive) | > 100 µM (inactive) | > 100 µM (inactive) | > 100 µM (inactive) | 95.3 µM (inactive) | 72.4 µM (inactive) | > 100 µM (inactive) | 39.4 µM (inactive) | – | > 100 µM (inactive) | > 100 µM (inactive) | > 100 µM (inactive) | > 100 µM (inactive) | – | > 100 µM (inactive) | > 100 µM (inactive) | – | –
COc1cc(C(O)C(=O)c2cnc3cc([N+](=O)[O-])ccc3n2)ccc1O (stereo not given) | > 100 µM (inactive) | 86.5 µM (inactive) | > 100 µM (inactive) | – | – | 64.1 µM (inactive) | > 100 µM (inactive) | > 100 µM (inactive) | > 100 µM (inactive) | > 100 µM (inactive) | > 100 µM (inactive) | > 100 µM (inactive) | > 100 µM (inactive) | 85.5 µM (inactive) | > 100 µM (inactive) | > 100 µM (inactive) | – | –
C/C(=C1/N=C(c2cc([N+](=O)[O-])ccc2Cl)N(c2ccc(Br)cc2)C1=O)c1ccc(N(CCC#N)CCC#N)cc1C | 31.5 µM (inactive) | 16.2 µM (inactive) | 36.9 µM (inactive) | > 100 µM (inactive) | 24.5 µM (inactive) | 16.8 µM (inactive) | 13.7 µM (inactive) | > 100 µM (inactive) | 7.98 µM (inactive) | 12.7 µM (inactive) | 68.2 µM (inactive) | 24.7 µM (inactive) | 25.7 µM (inactive) | 19.8 µM (inactive) | 25.1 µM (inactive) | 38.8 µM (inactive) | – | –
N#Cc1nc(-c2cccnc2)oc1N | > 100 µM (inactive) | > 100 µM (inactive) | > 100 µM (inactive) | > 100 µM (inactive) | > 100 µM (inactive) | > 100 µM (inactive) | > 100 µM (inactive) | – | > 100 µM (inactive) | > 100 µM (inactive) | > 100 µM (inactive) | 4.83 µM (inactive) | > 100 µM (inactive) | > 100 µM (inactive) | > 100 µM (inactive) | > 100 µM (inactive) | > 100 µM (inactive) | > 100 µM (inactive)
Cc1ccc(NC(=O)C(=O)CC(=O)C2CCOC2=O)c(C)c1 (stereo not given) | > 100 µM (inactive) | > 100 µM (inactive) | > 100 µM (inactive) | > 100 µM (inactive) | > 100 µM (inactive) | > 100 µM (inactive) | > 100 µM (inactive) | 76.2 µM (inactive) | – | > 100 µM (inactive) | > 100 µM (inactive) | > 100 µM (inactive) | > 100 µM (inactive) | > 100 µM (inactive) | > 100 µM (inactive) | > 100 µM (inactive) | – | –
COc1cc(/C=C\c2ccc(Cl)cc2)cc(OC)c1OC | 1.38 µM (inactive) | 0.0251 µM (active) | 0.0459 µM (active) | 0.24 µM (active) | 0.102 µM (active) | 0.2 µM (active) | 0.025 µM (active) | 0.188 µM (active) | 0.0652 µM (active) | 0.0552 µM (active) | 38.9 µM (inactive) | 0.593 µM (active) | 0.171 µM (active) | 0.302 µM (active) | 0.221 µM (active) | 5.74 µM (inactive) | – | –
CCCCCC(O)(CCCCC)CCCCCCCCC1=C(O)C(=O)c2ccc(=O)[nH]c2C1=O | 6.37 µM (inactive) | 4.92 µM (inactive) | 15.3 µM (inactive) | 8.36 µM (inactive) | 4.23 µM (inactive) | 9.38 µM (inactive) | 3.78 µM (inactive) | 17.5 µM (inactive) | 27.3 µM (inactive) | 8 µM (inactive) | – | 13.3 µM (inactive) | 12.2 µM (inactive) | 10.4 µM (inactive) | 8.85 µM (inactive) | 1.87 µM (inactive) | – | –
